ChEMBL document CHEMBL1138911 (Bioorg Med Chem Lett, 2006)

Experiments:
Mus musculus [1] = species on record: Mus musculus; test: animal or person; conditions: SHR, Tail, iv
Description: Analgesic activity in iv dosed SHR mouse by tail flick assay

Mus musculus [2] = species on record: Mus musculus; test: animal or person; conditions: DBA, iv
Description: Analgesic activity in iv dosed DBA mouse by hot plate assay

Mus musculus [3] = species on record: Mus musculus; test: animal or person; conditions: DBA, Tail, iv
Description: Analgesic activity in iv dosed DBA mouse by tail flick assay

Mus musculus [4] = species on record: Mus musculus; test: animal or person; conditions: SHR, iv
Description: Analgesic activity in iv dosed SHR mouse by hot plate assay

Mus musculus [5] = species on record: Mus musculus; test: animal or person; conditions: SHR, iv; remark: listed apart in the source
Description: Analgesic activity in iv dosed SHR mouse by tail clip assay

Mus musculus [6] = species on record: Mus musculus; test: animal or person; conditions: SHR, iv; remark: listed apart in the source
Description: Analgesic activity in iv dosed SHR mouse by writhing assay

Mus musculus [7] = test: Analgesic activity in iv dosed DBA mouse by tail clip assay; assay type: functional
Mus musculus [8] = species on record: Mus musculus; test: animal or person; conditions: DBA, iv; remark: listed apart in the source
Description: Analgesic activity in iv dosed DBA mouse by writhing assay

Compound: CO[C@@]12CC[C@@]3(C[C@@H]1[C@](C)(O)C(C)(C)C)[C@H]1Cc4ccc(O)c5c4[C@@]3(CCN1CC1CC1)[C@H]2O5 [BUPRENORPHINE]
- ED50 (Mus musculus [1]): 0.0404 mg/kg
- ED50 (Mus musculus [2]): 0.195 mg/kg
- ED50 (Mus musculus [3]): 0.312 mg/kg
- ED50 (Mus musculus [4]): 0.0233 mg/kg
- ED50 (Mus musculus [5]): 0.0466 mg/kg
- ED50 (Mus musculus [6]): 0.0223 mg/kg
- Efficacy (Mus musculus [7]): 46.7%
- ED50 (Mus musculus [8]): 0.0295 mg/kg
